Reference: article PMC6325233, “A Novel Actin Binding Drug with In Vivo Efficacy” (Antimicrobial Agents and Chemotherapy, 2018)
Entries after “also recorded” stand apart in the source; their conditions may differ.

Assays:
[1] = system: Aspergillus fumigatus 28436; assay: MIC susceptibility testing; type: cell-based; conditions: CLSI M38-A2
Description: (§1) Occidiofungin was purified from a liquid culture of Burkholderia contaminans MS14 as previously described ([21]). MIC susceptibility testing was performed according to the CLSI M27-A3 and M38-A2 standards for the susceptibility testing of yeasts and filamentous fungi, respectively. S. cerevisiae deletion mutants were obtained from the commercially available BY4741 deletion library (Thermo Scientific).

[2] = system: Candida albicans 28200; assay: MIC susceptibility testing; type: cell-based; conditions: CLSI M27-A3
Description: as §1

[3] = system: Candida auris MRL# 35646; assay: MIC susceptibility testing; type: cell-based; conditions: CLSI M27-A3; 24 hours
Description: as §1

[4] = system: Candida auris MRL# 35651; assay: MIC susceptibility testing; type: cell-based; conditions: CLSI M27-A3; 24 hours
Description: as §1

[5] = system: Candida glabrata 28271; assay: MIC susceptibility testing; type: cell-based; conditions: CLSI M27-A3
Description: as §1

[6] = system: Candida krusei 28570; assay: MIC susceptibility testing; type: cell-based; conditions: CLSI M27-A3
Description: as §1

[7] = system: Candida parapsilosis 28364; assay: MIC susceptibility testing; type: cell-based; conditions: CLSI M27-A3
Description: as §1

[8] = system: Candida tropicalis 28272; assay: MIC susceptibility testing; type: cell-based; conditions: CLSI M27-A3
Description: as §1

[9] = system: Candida tropicalis 28478; assay: MIC susceptibility testing; type: cell-based; conditions: CLSI M27-A3
Description: as §1

[10] = system: Fusarium solani 18749; assay: MIC susceptibility testing; type: cell-based; conditions: CLSI M38-A2
Description: as §1

[11] = system: Mucor circinelloides 19445; assay: MIC susceptibility testing; type: cell-based; conditions: CLSI M38-A2
Description: as §1

[12] = system: Trichophyton mentagrophytes 28556; assay: MIC susceptibility testing; type: cell-based; conditions: CLSI M38-A2; 96 hours
Description: as §1

[13] = system: Trichophyton mentagrophytes 28641; assay: MIC susceptibility testing; type: cell-based; conditions: CLSI M38-A2; 96 hours
Description: as §1

[14] = system: Trichophyton rubrum 28658; assay: MIC susceptibility testing; type: cell-based; conditions: CLSI M38-A2; 96 hours
Description: as §1

[15] = system: Trichophyton rubrum 28659; assay: MIC susceptibility testing; type: cell-based; conditions: CLSI M38-A2; 96 hours
Description: as §1

[16] = system: Candida krusei 28415; assay: MIC susceptibility testing (fluconazole-resistant strain); type: cell-based; conditions: CLSI M27-A3
Description: as §1

[17] = system: F-actin; assay: Actin polymerization and depolymerization assays; type: biochemical; conditions: 20 μg occidiofungin in 20 μL of 1.5% β-cyclodextrin in PBS, pyrene actin
[18] = system: Schizosaccharomyces pombe; assay: Intracellular localization and competition, fluorescence microscopy; type: cell-based; conditions: pretreatment with 1× MIC native occidiofungin
Description: S. pombe and S. cerevisiae cells (OD600 of 0.6 to 0.8) were incubated with 1× MIC of alkyne-OF at 30°C, with samples removed at 10, 30, and 60 min postincubation. The cells were washed in PBS and fixed with 3.7% formaldehyde. The cells were permeabilized by adding 0.5% Triton X-100. The cells were washed with PBS before the Click reaction with azide-derivatized Alexa Fluor 488 (Click-iT EdU imaging kit; Thermo Fisher Scientific). The cells were visualized with an Olympus FV1000 confocal microscope. A competition assay was carried out by pretreating cells with 1× MIC of the native occidiofungin followed by treatment with alkyne-OF. […] A 6.6 µM concentration of tetramethyl rhodamine isothiocyanate (TRITC)-tagged phalloidin was added to formaldehyde-fixed cells (permeabilized with 0.2% Triton X-100) for 30 min at room temperature. The cells were washed in PBS, added to a concanavalin A-treated glass slides, and overlaid with Vectashield plus DAPI. Images were viewed using a Nikon 50i fluorescence microscope with a 100× oil immersion objective and Texas Red and DAPI filter sets. Random images were captured using a Retiga EXi black and white charge-coupled-device (CCD) camera and Image Q software. All images were captured using the same exposure settings, with the image contrast altered postcapture using CorelDraw.

[19] = system: C. albicans; assay: Murine model of vulvovaginal candidiasis, efficacy; type: in vivo, BALB/c mice infected with C. albicans
Description: The murine model of vulvovaginal candidiasis has been reported ([59]). A variation of this method was used. Three groups of six mice were used to evaluate two concentrations of occidiofungin (100 μg and 50 μg) and vehicle control (0.3% Noble agar). Briefly, 6- to 8-week-old BALB/c mice were treated subcutaneously with 200 ng per mouse of β-estradiol 17-valerate 3 days prior to inoculation with C. albicans (day −3). A subcutaneous dose of estradiol was administered every 3 days (day 0 [D0] and D3) until the end of the experiment to induce pseudoestrus. Intravaginal inoculations of approximately 20 μl of 2.5 × 10^6 CFU/ml of C. albicans were performed on D0 of the VVC study. On the same day of inoculation (D0), another subcutaneous injection of estradiol was made. A lyophilized powder of occidiofungin containing either 100 μg or 50 μg of occidiofungin was suspended in 20 μl of warm 0.3% Noble agar before the intravaginal inoculations. Drug treatments were performed on D2, D3, and D4 of the study. On day 5 (D5), the vaginal lumen was lavaged with 100 μl of sterile PBS with a 200-µl pipette tip. Serial dilutions and total CFU per vaginal lavage were determined by plating on YPD plates containing 50 μg/ml of chloramphenicol. Body weights, signs of vaginal irritation such as swelling or bleeding, and clinical signs of discomfort (stereotypical stretching behavior) were monitored. Statistical analyses (t tests) were performed to compare the control group to the treated groups and to compare differences between treated groups. All the analyses were 2 sided, with a P value of <0.05 considered statistically significant.

occidiofungin
MIC, 50% inhibition ([1]; 24 hours): 2 µg/mL | MIC, 100% inhibition ([1]; 24 hours): 4 µg/mL | MIC, 50% inhibition ([1]; 48 hours): 2 µg/mL | MIC, 100% inhibition ([1]; 48 hours): 4 µg/mL | MIC, 50% inhibition ([2]; 24 hours): 4 µg/mL | MIC, 100% inhibition ([2]; 24 hours): 8 µg/mL | MIC, 50% inhibition ([2]; 48 hours): 4 µg/mL | MIC, 100% inhibition ([2]; 48 hours): 8 µg/mL | MIC, 50% inhibition [3]: 0.125 µg/mL | MIC, 100% inhibition [3]: 0.25 µg/mL | MIC, 50% inhibition [4]: 0.125 µg/mL | MIC, 100% inhibition [4]: 0.25 µg/mL | MIC, 50% inhibition ([5]; 24 hours): 4 µg/mL | MIC, 100% inhibition ([5]; 24 hours): 8 µg/mL | MIC, 50% inhibition ([5]; 48 hours): 4 µg/mL | MIC, 100% inhibition ([5]; 48 hours): 8 µg/mL | MIC, 50% inhibition ([6]; 24 hours): 4 µg/mL | MIC, 100% inhibition ([6]; 24 hours): 8 µg/mL | MIC, 50% inhibition ([6]; 48 hours): 4 µg/mL | MIC, 100% inhibition ([6]; 48 hours): 8 µg/mL | MIC, 50% inhibition ([7]; 24 hours): 4 µg/mL | MIC, 100% inhibition ([7]; 24 hours): 8 µg/mL | MIC, 50% inhibition ([7]; 48 hours): 4 µg/mL | MIC, 100% inhibition ([7]; 48 hours): 8 µg/mL | MIC, 50% inhibition ([8]; 24 hours): 4 µg/mL | MIC, 100% inhibition ([8]; 24 hours): 8 µg/mL | MIC, 50% inhibition ([8]; 48 hours): 4 µg/mL | MIC, 100% inhibition ([8]; 48 hours): 8 µg/mL | MIC, 50% inhibition ([9]; 24 hours): 4 µg/mL | MIC, 100% inhibition ([9]; 24 hours): 8 µg/mL | MIC, 50% inhibition ([9]; 48 hours): 4 µg/mL | MIC, 100% inhibition ([9]; 48 hours): 8 µg/mL | MIC, 50% inhibition ([10]; 24 hours): 2 µg/mL | MIC, 100% inhibition ([10]; 24 hours): 4 µg/mL | MIC, 50% inhibition ([10]; 48 hours): 2 µg/mL | MIC, 100% inhibition ([10]; 48 hours): 4 µg/mL | MIC, 50% inhibition ([11]; 24 hours): 4 µg/mL | MIC, 100% inhibition ([11]; 24 hours): 8 µg/mL | MIC, 50% inhibition ([11]; 48 hours): 4 µg/mL | MIC, 100% inhibition ([11]; 48 hours): 8 µg/mL | MIC, 80% inhibition [12]: 1 µg/mL | MIC, 100% inhibition [12]: 2 µg/mL | MIC, 80% inhibition [13]: 1 µg/mL | MIC, 100% inhibition [13]: 2 µg/mL | MIC, 80% inhibition [14]: 1 µg/mL | MIC, 100% inhibition [14]: 2 µg/mL | MIC, 80% inhibition [15]: 1 µg/mL | MIC, 100% inhibition [15]: 2 µg/mL | MIC, 50% inhibition ([16]; 24 hours): 4 µg/mL | MIC, 100% inhibition ([16]; 24 hours): 8 µg/mL | MIC, 50% inhibition ([16]; 48 hours): 4 µg/mL | MIC, 100% inhibition ([16]; 48 hours): 8 µg/mL | effect on polymerization or depolymerization of F-actin [17]: no effect on the polymerization or depolymerization properties of F-actin | competition with alkyne-OF localization [18]: the observed cellular localization patterns disappeared; also recorded: does not bind | difference between the two treated groups ([19]; 100 vs 50 µg, P = 0.33): no statistically significant difference between the two treated groups | reduction in fungal load ([19]; intravaginal 100 and 50 µg in 0.3% Noble agar, once per day for 3 days, six mice per group, vs vehicle P < 0.001): 2 -log | efficacious concentration lower than azole-based treatment ([19]; vs azole-based treatment methods): 10 -fold
